Laboratory results reported in PubChem BioAssay AID1963420 (Molecular Pharmacology Branch, DTP, NCI, 2024).

Tested on: 494315-158-R-J1-PDC complex spheroid growth, percent test/control
Test: Anticancer human tumor 494315-158-R-J1-PDC patient-derived soft tissue sarcoma cell line growth inhibition [Asc]
Details: for IC50: curve of first compound; for viability, T/C: stronger effect = lower value
How it was run: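 Stromal components (HUVEC and hMSC) are co-assembled with the cancer cells into multicellular spheroids. Drugs are then added singly or paired, at concentrations falling by half-log increments from a clinically achievable maximum, capped at 10 microM without known Cmax.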

[1] = second compound 0.1 µM, first compound 0.00949 µM
[2] = second compound 0.1 µM, first compound 0.03 µM
[3] = second compound 0.1 µM, first compound 0.0949 µM
[4] = second compound 0.1 µM, first compound 0.3 µM
[5] = second compound 0.1 µM, first compound 0.949 µM
[6] = second compound 0.1 µM, first compound 3 µM
[7] = second compound 0.316 µM, first compound 0.00949 µM
[8] = second compound 0.316 µM, first compound 0.03 µM
[9] = second compound 0.316 µM, first compound 0.0949 µM
[10] = second compound 0.316 µM, first compound 0.3 µM
[11] = second compound 0.316 µM, first compound 0.949 µM
[12] = second compound 0.316 µM, first compound 3 µM
[13] = second compound 1 µM, first compound 0.00949 µM
[14] = second compound 1 µM, first compound 0.03 µM
[15] = second compound 1 µM, first compound 0.0949 µM
[16] = second compound 1 µM, first compound 0.3 µM
[17] = second compound 1 µM, first compound 0.949 µM
[18] = second compound 1 µM, first compound 3 µM
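Note: compound exposure lasted seven days after spheroids formed for three days.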

Structure (SMILES)	IC50 (second compound 0.1 µM)	IC50 (second compound 0.316 µM)	IC50 (second compound 1 µM)	viability, T/C [1]	viability, T/C [2]	viability, T/C [3]	viability, T/C [4]	viability, T/C [5]	viability, T/C [6]	viability, T/C [7]	viability, T/C [8]	viability, T/C [9]	viability, T/C [10]	viability, T/C [11]	viability, T/C [12]	viability, T/C [13]	viability, T/C [14]	viability, T/C [15]	viability, T/C [16]	viability, T/C [17]	also measured
CCN1C(C(=O)NC23CCC(C(=O)O)(CC2)CC3)C(c2cccc(Cl)c2F)C2(C(=O)Nc3cc(Cl)ccc32)C12CCCCC2 (stereo not given) + CNC(C)C(=O)NC1CN(S(=O)(=O)c2cccc(S(=O)(=O)N3CCC4CCC(C(=O)NC(c5ccccc5)c5ccccc5)N4C(=O)C(NC(=O)C(C)NC)C3)c2)CCC2CCC(C(=O)NC(c3ccccc3)c3ccccc3)N2C1=O	539 nM	44.6 nM	< 9.49 nM	51.4%	53.4%	56.5%	52%	47.1%	39.3%	53.9%	55.3%	49.8%	39.5%	41%	45.4%	39.6%	45.6%	44.5%	38.7%	35.7%	IC50 (second compound 0.01 µM): > 3000 nM; IC50 (second compound 0.0316 µM): > 3000 nM; viability, T/C (second compound 0.01 µM, first compound 0.00949 µM): 66.2%; viability, T/C (second compound 0.01 µM, first compound 0.03 µM): 77.9%; viability, T/C (second compound 0.01 µM, first compound 0.0949 µM): 66.8%; viability, T/C (second compound 0.01 µM, first compound 0.3 µM): 73.7%; viability, T/C (second compound 0.01 µM, first compound 0.949 µM): 67.5%; viability, T/C (second compound 0.01 µM, first compound 3 µM): 57.8%; viability, T/C (second compound 0.0316 µM, first compound 0.00949 µM): 57.3%; viability, T/C (second compound 0.0316 µM, first compound 0.03 µM): 62.8%; viability, T/C (second compound 0.0316 µM, first compound 0.0949 µM): 61.5%; viability, T/C (second compound 0.0316 µM, first compound 0.3 µM): 71%; viability, T/C (second compound 0.0316 µM, first compound 0.949 µM): 60.6%; viability, T/C (second compound 0.0316 µM, first compound 3 µM): 51.4%; viability, T/C [18]: 33%
Cc1nc(N2CCC3(CC2)COC(C)C3N)c(CO)nc1Sc1ccnc(N)c1Cl (stereo not given) + Cc1c(S(C)(=O)=O)c(-c2cc(F)cc(N3CCN(c4ccc(NS(=O)(=O)c5ccc(NC(CCN6CCC(C(=O)OCCCP(=O)(O)O)CC6)CSc6ccccc6)c(S(=O)(=O)C(F)(F)F)c5)cc4)CC3)c2)c(-c2ccc(Cl)cc2)n1C(C)C	558 nM	260 nM	107 nM	71.1%	80.7%	69.1%	61.6%	40.5%	23.5%	68.3%	70%	51.8%	55.2%	30.5%	17.1%	71.4%	71%	49.6%	34.6%	20.7%	IC50 (second compound 3.16 µM): < 9.49 nM; IC50 (second compound 10 µM): 194 nM; viability, T/C [18]: 21%; viability, T/C (second compound 3.16 µM, first compound 0.00949 µM): 48.8%; viability, T/C (second compound 3.16 µM, first compound 0.03 µM): 41.2%; viability, T/C (second compound 3.16 µM, first compound 0.0949 µM): 43.6%; viability, T/C (second compound 3.16 µM, first compound 0.3 µM): 26.4%; viability, T/C (second compound 3.16 µM, first compound 0.949 µM): 22.6%; viability, T/C (second compound 3.16 µM, first compound 3 µM): 10.3%; viability, T/C (second compound 10 µM, first compound 0.00949 µM): 76.8%; viability, T/C (second compound 10 µM, first compound 0.03 µM): 69.6%; viability, T/C (second compound 10 µM, first compound 0.0949 µM): 67.6%; viability, T/C (second compound 10 µM, first compound 0.3 µM): 38.5%; viability, T/C (second compound 10 µM, first compound 0.949 µM): 22.1%; viability, T/C (second compound 10 µM, first compound 3 µM): 8.76%
